Results as given in patent US8440637B2, “Combination treatment for the treatment of hepatitis C virus infection” (priority 2007, dated 2013).
Strand notation (5' to 3'): a small letter for the sugar, then the base; units joined by * are phosphorothioate-linked, units joined directly phosphodiester-linked; [ ] holds rarer units or linkages, { } end groups; capitals alone tell only the bases. l = locked nucleic acid (LNA); [5mC] = 5-methylcytosine; d = 2'-deoxy (DNA)

Key:
[1] = tested on: ApoB-100 mRNA; assay: ApoB-100 mRNA expression in liver by qPCR after dosing apoB antisense oligonucleotides; type: in vivo, mouse
Procedure: (§1) In this study 5 mg/kg/dose were dosed on 3 consecutive days (one dose/day i.v.) and animals were sacrificed 24 hours after last dosing. At sacrifice, liver and retro orbital sinus blood was sampled. Serum was prepared from blood for analysis of cholesterol. RNA was isolated from the liver and the expression of ApoB-100 mRNA was measured.
(§2) In this study three different concentrations (10, 15 and 25 mg/kg) of SEQ ID NO 17 (Table 1) and SEQ ID NO 34 (Table 1) were examined for duration of action on ApoB-100 mRNA expression and serum cholesterol level. SEQ ID NO 17 and SEQ ID NO 34 were given as a single dose of 10, 15 or 25 mg/kg to C57BL/6 female mice. Mice were sacrificed at different time points (1, 3, 5 and 8 days) after dosing; liver and serum were examined for ApoB-100 mRNA expression, liver oligonucleotide concentration and cholesterol and ALT, respectively.
Liver sampled at sacrifice was analysed for ApoB-100 mRNA expression by qPCR. Data was normalized to Gapdh and presented relative to the data obtained by dosing saline. One dose of 10, 15 or 25 mg/kg of SEQ ID NO 17 or SEQ ID NO 34 was very effective to down regulate ApoB-100 mRNA in liver (FIG. 3).
A single dose of SEQ ID NO 17 (Table 1) and SEQ ID NO 34 (Table 1) at different concentrations was administered to C57BL/6J mice to find ED50 values for cholesterol. Duration of action was also included in this study, because we previously have seen that maximum effect of a single dose not always was achieved 24 hours after dosing. […] In this study we therefore have chosen lower concentrations (1, 2.5 and 5 mg/kg).
Liver sampled at sacrifice was analysed for ApoB-100 mRNA expression by qPCR. Data was normalized to Gapdh and presented relative to the data obtained by dosing saline. One dose of 10, 15 or 25 mg/kg of SEQ ID NO 17 or SEQ ID NO 34 was very effective to down regulate ApoB-100 mRNA in liver (FIG. 5).
The effect on ApoB-100 mRNA was examined at different days after dosing 1.0 or 5.0 mg/kg (one dose day 0) of the three LNA antisense oligonucleotides 12-mer SEQ ID NO 34 (Table 1), SEQ ID NO 26 (Table 1) 13-mer and 14-mer SEQ ID NO 17 (Table 1) all targeting ApoB mRNA.
Liver sampled at sacrifice was analysed for ApoB-100 mRNA expression by qPCR. Data was normalized to Gapdh and presented relative to the data obtained by dosing saline. Dosing 3* 1 or 5 mg/kg of SEQ ID NO 34, SEQ ID NO 17 or SEQ ID NO 26 was very effective to down regulate ApoB-100 mRNA in liver (FIG. 7). […] SEQ ID NO 17 dosed 3* 1 mg/kg/dose or 5 mg/kg/dose down regulated target mRNA with 50% and 70% respectively.

[2] = tested on: ApoB-100 mRNA; assay: Serum total cholesterol after dosing apoB antisense oligonucleotides; type: in vivo, mouse
Procedure: Total cholesterol level is measured in plasma using a colometric assay Cholesterol CP from ABX Pentra. The cholesterol is measured following enzymatic hydrolysis and oxidation. 21.5 μL water was added to 1.5 μL plasma. 250 μL reagent is added and within 5 min the cholesterol content is measured at a wavelength of 540 nm. Measurements on each animal was made in duplicates. The sensitivity and linearity was tested with 2 fold diluted control compound (ABX Pentra N control). The relative Cholesterol level was determined by subtraction of the background and presented relative to the cholesterol levels in plasma of saline treated mice.
as §1, §2
Blood serum used to measure cholesterol was sampled at sacrifice. Twenty-four hours after dosing SEQ ID NO 17 serum total cholesterol was reduced 25-40%, and dosing SEQ ID NO 34 gave 40-55% reduction in total cholesterol. At day 3, the total cholesterol level was further reduced: SEQ ID NO 17 gave 70-90% reduction in a dose dependent manner after doing 10, 15 or 25 mg/kg. SEQ ID NO 34 reduced total cholesterol with 90-95% relative to the saline control group. At day 5-8 the total cholesterol level increased in all groups except the group dosed SEQ ID NO 17 at 10 mg/kg. (FIG. 4.).
Blood serum was sampled at sacrifice and used to measure cholesterol. The serum total cholesterol level reflected the mRNA expression of ApoB-100; dose dependent reduction with best effect at 5 days after dosing SEQ ID NO 17 at 1 and 2.5 mg/kg and similar effect at days 3, 5 and 8 after dosing 5 mg/kg (50% reduction). Dose dependent effect was also obtained after dosing SEQ ID NO 34 with best effect at day 3 after dosing 5 mg/kg (70% reduction) with following increase in cholesterol level (60% reduction at day 8 and 45% at day 16).
At sacrifice blood for serum was sampled and used to measure cholesterol.

[3] = tested on: miR-122a; assay: Melting temperature (Tm) of LNA anti-miR/miR-122a RNA duplex; type: physicochemical, human; settings: Table 2; towards synthetic miR-122a RNA oligonucleotide with phosphorothioate linkages; PS backbone
Procedure: The melting temperatures were assessed towards the mature miR-122a sequence, using a synthetic miR-122a RNA oligonucleotide with phosphorothioate linkaged.
The LNA anti-miR/miR-122a oligo duplex was diluted to 3 μM in 500 μl RNase free H2O, which was then mixed with 500 μl 2× dimerization buffer (final oligo/duplex conc. 1.5 μM, 2× Tm buffer: 200 mM NaCl, 0.2 mM EDTA, 20 mM NaP, pH 7.0, DEPC treated to remove RNases). The mix was first heated to 95 degrees for 3 minutes, then allowed to cool at room temperature (RT) for 30 minutes.
Following RT incubation Tm was measured on Lambda 40 UV/VIS Spectrophotometer with peltier temperature progammer PTP6 using PE Templab software (Perkin Elmer). The temperature was ramped up from 20° C. to 95° C. and then down again to 20° C., continuously recording absorption at 260 nm. First derivative and local maximums of both the melting and annealing was used to assess melting/annealing point (Tm), both should give similar/same Tm values. For the first derivative 91 points was used to calculate the slope.

[4] = liver, 3 doses of 5 mg/kg/dose i.v. on consecutive days, 24 hours after last dosing

## 5′-AsGs^MeCsaststsgsgstsastsTs^MeCsA-3′ (antisense lA*lG*l[5mC]*dA*dT*dT*dG*dG*dT*dA*dT*lT*l[5mC]*lA) [SEQ ID NO: 17]
[1]; 10, 15 or 25 mg/kg SEQ ID NO 34, 25 mg/kg SEQ ID NO 17
  ApoB-100 mRNA down-regulation (in words): completely down-regulated
[1]; [4]
  down regulation of ApoB-100 mRNA: about 75%
[1]; liver, dosing 3*1 mg/kg i.v.
  down regulation of ApoB-100 mRNA: 50%
[1]; liver, dosing 3*5 mg/kg i.v.
  down regulation of ApoB-100 mRNA: 70%
[1]; liver, single dose of 10, 15 or 25 mg/kg, C57BL/6 female mice, 24 hours after dosing
  down regulation of ApoB-100 mRNA relative to saline: 70-85%
[1]; single dose 5 mg/kg, day 8
  reduction of ApoB-100 mRNA expression: 75%
[1]; single dose of 1, 2.5 or 5 mg/kg, C57BL/6J mice
  duration of dose dependent down regulation of ApoB-100 mRNA: 5 days
[2]; dosing 3*1 mg/kg
  reduction of serum cholesterol: 40%
[2]; dosing 3*5 mg/kg/dose
  reduction of serum cholesterol: 70%
[2]; single dose 5 mg/kg, days 3, 5 and 8
  reduction of serum total cholesterol: 50%
[2]; single dose of 10, 15 or 25 mg/kg, 24 hours after dosing
  reduction of serum total cholesterol: 25-40%
[2]; single dose of 10, 15 or 25 mg/kg, day 3
  reduction of serum total cholesterol: 70-90%

## 5′-AsGs^MeCsaststsgsgstsastsTs^MeCsAsg-3′ (antisense lA*lG*l[5mC]*dA*dT*dT*dG*dG*dT*dA*dT*lT*l[5mC]*lA*dG) [SEQ ID NO: 16]
[1]; [4]
  down regulation of ApoB-100 mRNA: 25-30%
[2]; 3 doses of 5 mg/kg/dose i.v., at sacrifice, day 3
  reduction of serum total cholesterol: about 18%

## 5′-CCAttgtcacacTCCa-3′ (antisense l[5mC]*l[5mC]*lA*dT*dT*dG*dT*dC*dA*dC*dA*dC*lT*l[5mC]*l[5mC]*dA) [SEQ ID NO: 62]
[3]
  Tm (° C.): 69 °C
